Laboratory results taken from US7183302B2, “Iminothiazolidinones as inhibitors of HCV replication” (priority 2002, dated 2007).
Read-outs that look alike come from different tables or passages of the source.

Legend:
[1] = system: Y > H replicon cells (Huh-7); test: Alamar blue CC50 on Y > H replicon cells
[2] = system: wild-type HCV 377-neo replicon in Huh-7 cells; test: Colony formation under G418 selection, wild-type replicon RNA
[3] = system: Compound 1-r replicon cells (HCV 377-neo); test: FRET assay on selected Compound 1-r replicon cells; assay type: cell-based; settings: initial test
Experimental: HCV 377-neo replicon cells were plated in 100-mm plates with ˜25% confluence after 24 hr seeding. Compound 1 was added at the final concentrations of 5, 10 and 20 μM in the presence of G418. Wild type replicon cells in the absence of the compound were used as a control. After 5–6 weeks, both wt replicon cells and selected cells were tested for their sensitivity to Compound 1. In addition, cell lines derived from individual colonies from different concentrations of selective Compound 1 were also isolated, expanded and tested. In the initial test, approximately 60-fold resistance, judged by the FRET assay, was observed between wt replicon cells and selected replicon cells (designated as Compound 1-r replicon cells).

[4] = system: HCV 1b-377-neo replicon cells (Huh-7); test: Alamar blue conversion (cellular toxicity, CC50), wild-type replicon cells; assay type: cell-based
[5] = system: HCV replicon (HCV 1b-377-neo replicon cells); test: HCV replicon cell line and FRET assay; assay type: cell-based
[6] = system: Y2065C Blast/Luciferase HCV replicon; assay type: cell-based, HCV 1b
[7] = system: wild-type Blast/Luciferase HCV replicon; assay type: cell-based, HCV 1b
[8] = system: HCV replicon; test: Western analysis of NS3 in replicon cells; assay type: cell-based
Experimental: EC50 values were also determined by Western analysis performed according to the instructions for Chemiluminescence Immunology Kit (Cat# NEL105) Amersham, Arlington Heights, Ill. using a Molecular Dynamics Storm 860 phosphoimager and associated software. Experiments were done in duplicate. The primary and secondary antibody dilutions were at 1 to 5,000. Antisera was generated by immunizing rabbits with purified NS3 protease made from an E. Coli expression vector encoding the first 181 amino acids of HCV 1a NS3 with subsequent boosts. Bleeds were tested weekly and boosts continued until a positive signal on a control western was seen. Secondary antibody was a BioRad (#170-6515) Goat anti-Rabbit IgG HRP Conjugate (Cat# 170-6515) BioRad, Hercules, Calif. The protein samples for western analysis were from the same wells used for the FRET assay and were prepared by the addition of an equal volume of 2×SDS-PAGE buffer to the FRET assay mixture, heating and loading on a 10% gel for SDS-PAGE. Interferon alpha (Cat# I-4276) Sigma, St. Louis, Mo. (IFN-α) was obtained and stored as recommended.

[9] = system: HCV replicon; test: HCV RNA detection by RT-PCR in replicon cells
[10] = Hepatitis C virus, HCV replicon cell line, FRET assay, read-out: Replicon Inhibition Range EC50
[11] = HCV replicon cell line, FRET assay, read-out: Replicon Inhibition Range EC50

Compound: C[C@H](NC(=O)OCc1ccccc1)C(=O)Nc1ccc(C2S/C(=N\c3cccc(F)c3)N(Cc3ccco3)C2=O)cc1 (stereo partly drawn) [Compound 1, (1S-(4-[2-(3-Fluorophenylimino)-3-furan-2-ylmethyl-4-oxo-thiazolidin-5-yl]-phenylcarbamoyl)ethyl)carbamic acid benzyl ester]
- CC50 [1]: > 5000 nM
- Number of colonies ([2]; Wild-type RNA transfected, 2 μM Compound 1, 3 weeks G418 selection): 3
- reduction in colony number ([2]; wild-type replicon RNA, 2 μM Compound 1): 95%
- resistance between wt replicon cells and selected replicon cells [3]: approximately 60 fold
- CC50 [4]: > 5000 nM

Compound: O=C(Nc1ccc(C2S/C(=N\c3cccc(Oc4ccccc4)c3)N(Cc3ccco3)C2=O)cc1)[C@@H]1CCCN1C(=O)OCc1ccccc1 (stereo partly shown) [Compound 34]
- EC50 [5, 10]: 100 to 1000 nM

Compound: C[C@H](NC(=O)OCc1ccccc1)C(=O)Nc1ccc(C2S/C(=N\c3ccc(C(F)(F)F)cc3)N(Cc3ccco3)C2=O)cc1 (stereo partly shown) [Compound 62]
- EC50 [5, 11]: 1000 to 5000 nM

Compound: C[C@H](NC(=O)OCc1ccccc1)C(=O)Nc1ccc(C2S/C(=N\c3ccc(N4CCOCC4)cc3)N(Cc3ccccn3)C2=O)cc1 (stereo partly shown) [Compound 80]
- EC50 [5, 11]: 100 to 1000 nM

Compound: O=C(Nc1ccc(C2S/C(=N\c3ccc(N4CCOCC4)cc3)N(Cc3cccnc3)C2=O)cc1)[C@@H]1CCCN1C(=O)OCc1ccccc1 (stereo partly shown) [Compound 81]
- EC50 [5, 11]: 100 to 1000 nM
- EC50 ([5]; Hepatitis C virus, 72 h, FRET assay, read-out: EC50 in monotherapy): 9 to 11 nM

Compound: CC(C)(C)/N=C1\SC(c2ccc(NC(=O)[C@@H]3CCC(=O)N3C(=O)OCc3ccccc3)cc2)C(=O)N1Cc1ccccn1 (stereo partly shown) [Compound 90]
- EC50 [5, 10]: 100 to 1000 nM

Compound: C[C@H](NC(=O)OCc1ccccc1)C(=O)Nc1ccc(C2S/C(=N\c3ccc(N4CCOCC4)cc3)N(c3ccccn3)C2=O)cc1 (stereo partly shown) [Compound 93]
- EC50 [5, 10]: 100 to 1000 nM

Compound: O=C(Nc1ccc(C2S/C(=N\c3ccc(N4CCOCC4)cc3)N(Cc3cccnc3)C2=O)cc1)[C@@H]1CCCN1C(=O)OCc1ccccc1 (stereo partly shown) [Compound 94]
- EC50 [5, 10]: < 100 nM

Compound: C[C@H](NC(=O)Cc1ccccc1)C(=O)Nc1ccc(C2S/C(=N\c3cccc(F)c3)N(Cc3ccco3)C2=O)cc1 (stereo partly drawn) [Compound 124, (N-{4-[2-(3-fluorophenylimino)-3-furan-2-ylmethyl-4-oxo-thiazolidin-5-yl]phenyl}-2S-(phenylacetylamino))propionamide]
- CC50 [1]: > 5000 nM
- CC50 [4]: > 5000 nM
- decrease in replication ([6]; Y2065C replicon, 0.5 μM Compound 124): 10–15%
- rlu 48 h ([6]; Y > C clone, 0.5 μM 124, 48 h): 7186 rlu
- rlu 72 h ([6]; Y > C clone, 0.5 μM 124, 72 h): 9696 rlu
- replication of the wild-type replicon ([7]; 0.5 μM Compound 124): completely inhibited
- rlu 48 h ([7]; wt clone, 0.5 μM 124, 48 h): 3237 rlu
- rlu 72 h ([7]; wt clone, 0.5 μM 124, 72 h): 3184 rlu

Compound: O=C(Nc1ccc(C2S/C(=N\c3cccc(F)c3)N(Cc3ccco3)C2=O)cc1)[C@@H]1CCCN1C(=O)Cc1ccccc1 (stereo partly shown) [Compound 127]
- EC50 [5, 10]: < 100 nM

Compound: IFN-α
- EC50 [8]: 1.9 units of IFN-α per milliliter
- EC50 ([5]; FRET): 2.9 units of IFN-α per milliliter
- EC50 [9]: 5.3 units of IFN-α per milliliter
